One assay has as its system SW620 cells. Kind of assay: MTT assay, SW620. The format is cell-based, human. The settings on record: human metastatic colon cancer, 72 h, MTT, mean ± SD.
For a further assay, the system named is SW480 cells. Kind of assay: MTT assay, SW480. The format is cell-based, human. The note with it: human primary colon cancer, 72 h, MTT, mean ± SD.
The subject of another assay is HaCaT cells. The assay is described as follows: MTT assay, HaCaT normal cells. The note with it: human immortal keratinocyte cell line, 72 h, mean ± SD. The format is cell-based.
In assay [1] the test system is M. tuberculosis Spec. 192 (Sensitive to Tuberculostatics). Kind of assay: MABA (microplate Alamar blue assay) MIC. The note with it: Mycobacterium tuberculosis, 336 h; 2 weeks of treatment; read-out: MIC M. tuberculosis Spec. 192 (Sensitive to Tuberculostatics). In kind it is cell-based.
The next assay deals with M. tuberculosis H37Rv. The assay is described as follows: MABA (microplate Alamar blue assay) MIC. The format is cell-based. The settings on record: Mycobacterium tuberculosis, 336 h, read-out: MIC M. tuberculosis H37Rv.

Structures are written as SMILES. Converted amounts (≈) assume the structure as drawn. Where two headings read alike, the source gives them in different places.

Six molecules from publication PMC9181188 (International Journal of Molecular Sciences, 2022) can be followed below.

For the molecule `N.N.[Cl][Pt][Cl]` [Cisplatin, reference compound], the figures for the IC50 in the assay with SW620 cells and with SW480 cells were 6.7 ± 1.1 µM and 10.4 ± 0.9 µM, respectively.
For the molecule `COc1cccc2c1C(=O)c1c(O)c3c(c(O)c1C2=O)C[C@@](O)(C(=O)CO)C[C@@H]3O[C@H]1C[C@H](N)[C@H](O)[C@H](C)O1` [Doxorubicin, reference compound], the IC50 with HaCaT cells was 0.29 ± 0.1 µM; in the assay with SW480 cells (Homo sapiens, SW480, 72 h), 0.75 ± 0.1 µM.
Regarding `NNC(=O)c1ccncc1` [Isoniazid (INH), Isoniazid, reference compound], the minimal inhibitory concentration (MIC) (in assay [1]; with M. tuberculosis H37Rv) was 0.125 µg/mL (≈ 0.911 µM) in each case.
On to `CO[C@H]1/C=C/O[C@@]2(C)Oc3c(C)c(O)c4c(O)c(c(/C=N/N5CCN(C)CC5)c(O)c4c3C2=O)NC(=O)/C(C)=C\C=C\[C@H](C)[C@H](O)[C@@H](C)[C@@H](O)[C@@H](C)[C@H](OC(C)=O)[C@@H]1C` [Rifampicin (RMP), Rifampicin, reference compound], for which the MIC (in assay [1]; in the assay with M. tuberculosis H37Rv (2 weeks of treatment)) was 1 µg/mL (≈ 1.22 µM) in each case.
With `CC[C@@H](CO)NCCN[C@@H](CC)CO` [Ethambutol (EMB), Ethambutol, reference compound], the minimum inhibitory concentration (MIC) (in assay [1]; in the assay with M. tuberculosis H37Rv (2 weeks of treatment)) was 2 µg/mL (≈ 9.79 µM) throughout.
On to `[H]/N=C(/N)N[C@H]1[C@H](O)[C@@H](O)[C@H](O[C@@H]2O[C@@H](C)[C@](O)(C=O)[C@H]2O[C@@H]2O[C@@H](CO)[C@H](O)[C@@H](O)[C@@H]2NC)[C@@H](N/C(N)=N\[H])[C@@H]1O` [Streptomycin (SM), Streptomycin, reference compound], for which the MIC (in assay [1]; in the assay with M. tuberculosis H37Rv (2 weeks of treatment)) was 1 µg/mL (≈ 1.72 µM) each time.
